# Paper PMC11456916, “A screen for cell envelope stress uncovers an inhibitor of prolipoprotein diacylglyceryl transferase, Lgt, in Escherichiacoli” (iScience, 2024)
# Where two headings read alike, the source gives them in different places.
# Key:
# E. coli BW25113 = test: MIC assay, wild-type E. coli with or without SPR741; type: cell-based; conditions: for reduction in potency relative to MAC-0452936 (1): MIC against E. coli with SPR741
# Protocol: We next sought to determine whether we could achieve growth inhibition of wild-type E. coli using MAC-0452936 and an antibiotic adjuvant. […] To that end, we determined the MIC of MAC-0452936 against wild-type E. coli in the presence and absence of a sub-MIC concentration of SPR741 (Figure S8B). […] We leveraged this combination to characterize the spectrum of activity of MAC-0452936 against a panel of Gram-negative pathogens (Table 2). In the presence of 8 μg/mL SPR741, we observed MAC-0452936 activity against the clinical E. coli isolates C0244 and CFT073 at 2 μg/mL as well as against Salmonella Typhimurium SL1344 at 4 μg/mL.
# (§1) For MIC assays, cultures of bacteria were grown in LB broth. Overnight cultures were diluted (1:100) into fresh LB media and grown to the mid-log phase of growth (OD600 ∼0.5). Subcultures were then normalized to an OD600 of 0.1, and diluted (1:5000) into assay media. Assay plates were then incubated for 18 h at 37°C, then OD600 was measured using a Biotek Neo plate reader.
# [1] = test system: E. coli ΔtolC-pore harboring CRISPRi plasmids targeting lgt; test: CRISPRi lgt knockdown MIC (low-copy enhancement); type: cell-based; conditions: two gRNAs targeting lgt, 100 ng/mL aTc
# From the text: We next turned to genetic approaches to confirm the mechanism of action of MAC-0452936. […] To that end, we screened the E. coli CRISPRi collection in the ΔtolC-pore genetic background with a sub-inhibitory concentration of MAC-0452936 and measured the fitness of all 356 CRISPRi mutants (Figure 4C and Data S4). […] Depletion of Lgt by CRISPRi provided supporting evidence that MAC-0452936 targeted Lgt in E. coli; however, we sought to confirm this observation using a parallel genetic approach. We hypothesized that MAC-0452936 potency would also be affected by high-copy expression of lgt. To that end, we introduced either an arabinose inducible copy of lgt supplied on the pCHAP9231 plasmid[48] or the pBAD19s plasmid as a control into E. coli ΔtolC-pore and tested the potency of MAC-0452936 (Figure 4E). Induction of lgt expression with arabinose suppressed the activity of MAC-0452936 by about 8-fold. […] To test this hypothesis, we constructed E. coli ΔlgtΔtolC-pore with pCHAP9231[48] so that lgt expression was driven solely by arabinose from the plasmid. […] To test this observation with MAC-0452936, we introduced an lpp deletion into our screening strain E. coli ΔtolC-pore and assessed the activity of our Lgt inhibitor in this mutant background. […]
# [2] = target: T1, prolipoprotein diacylglyceryl transferase, Lgt (Escherichia coli, UniProt P60955); test: In vitro Lgt biochemical assay (phosphatidylglycerol and Pal-IAAC peptide substrates); parameters: species or system E. coli
# T1 construct: Expression, purification, and in vitro Lgt biochemical assay were conducted as described by Diao et al; made in house
# From the text: With both genetic and phenotypic evidence supporting MAC-0452936 inhibiting Lgt in E. coli, we next investigated whether MAC-0452936 could inhibit Lgt activity in vitro. Recently, a biochemical assay for Lgt activity was developed using phosphatidylglycerol and Pal-IAAC peptide as substrates.[12] […] As similar results were obtained using two different Lgt enzyme preparations, the inhibition observed by MAC-0452936 was not dependent on the preparation of the lipid matrix. Together, we present genetic, phenotypic, and biochemical evidence that MAC-0452936 inhibits the growth of E. coli through inhibition of Lgt. MAC-0452936 represents a previously undiscovered small molecule inhibitor of bacterial Lgt, and the oxime ester represents a promising chemical scaffold for antibiotic discovery.
# Expression, purification, and in vitro Lgt biochemical assay were conducted as described by Diao et al.[12]
# E. coli ΔtolC-pore = test: MIC assay, E. coli ΔtolC-pore; type: cell-based; conditions: LB, 18 h
# Protocol: as §1
# [3] = Lgt purified using DDM lipid matrix, read-out: in vitro Lgt inhibition DDM-Lgt IC50
# [4] = Lgt purified using amphipol lipid matrix, read-out: in vitro Lgt inhibition Amph-Lgt IC50
# T1 sequence (P60955 whole entry): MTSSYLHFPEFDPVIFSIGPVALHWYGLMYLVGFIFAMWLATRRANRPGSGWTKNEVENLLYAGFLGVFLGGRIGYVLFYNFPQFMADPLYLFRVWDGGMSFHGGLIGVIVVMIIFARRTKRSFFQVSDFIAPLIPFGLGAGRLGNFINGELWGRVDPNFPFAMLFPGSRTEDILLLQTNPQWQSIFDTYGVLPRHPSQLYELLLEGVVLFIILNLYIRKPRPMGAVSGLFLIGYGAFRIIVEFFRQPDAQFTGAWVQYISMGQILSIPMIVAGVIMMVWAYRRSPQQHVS
Compound,reduction in potency relative to MAC-0452936 (1) (E. coli BW25113) [fold],sensitization upon depletion of Lgt with CRISPRi constructs [1],"IC50 [2, 3] [µM]","IC50 [2, 4] [µM]","MIC, E. coli ΔtolC-pore (E. coli ΔtolC-pore) [µg/mL]",activity against E. coli with SPR741 (E. coli BW25113; in words),"MIC, E. coli BW25113 (WT) + 8 μg/mL SPR741 (E. coli BW25113) [µg/mL]"
"COc1ccc(C(=O)O/N=C(\c2cncs2)C(C)(C)C)cc1 [compound 20, (Z)-5-Pivaloylthiazole O-(4-methoxybenzoyl) oxime]",≥ 32,,,,,,
CO[C@H]1/C=C/O[C@@]2(C)Oc3c(C)c(O)c4c(O)c(c(/C=N/N5CCN(C)CC5)c(O)c4c3C2=O)NC(=O)/C(C)=C\C=C\[C@H](C)[C@H](O)[C@@H](C)[C@@H](O)[C@@H](C)[C@H](OC(C)=O)[C@@H]1C [Rifampicin],,not to either of the negative control antibiotics,,,,,
"CC(C)(C)/C(=N/OC(=O)c1cccnc1)c1cccs1 [compound 3, (Z)-2-Pivaloylthiophene O-(pyridine-3-oyl) oxime]",,,3.54,2.72,1,,
"CC(C)(C)C(=NOS(N)(=O)=O)c1cccs1 [compound 17, 2-Pivaloylthiophene O-(sulfamoyl) oxime]",,,,,,inactive,
"COc1ccc(CC(=O)O/N=C(\c2cccs2)C(C)(C)C)cc1 [compound 16, (Z)-2-Pivaloylthiophene O-(2-(4-methoxyphenyl)acetyl) oxime]",8,,,,,,4
"COc1ccc(C(=O)O/N=C(\c2cccs2)C(C)(C)C)cc1N [compound 6, (Z)-2-Pivaloylthiophene O-(3-amino-4-methoxybenzoyl) oxime]",,,57.3,95.5,32,,8
"COc1cc(OC)cc(C(=O)O/N=C(\c2cccs2)C(C)(C)C)c1 [compound 7, (Z)-2-Pivaloylthiophene O-(3,5-dimethoxybenzoyl) oxime]",,,58.7,175,> 32,,4
"COc1ccc(C(=O)O/N=C(\c2cccs2)C(C)(C)C)c(F)c1 [compound 2, (Z)-2-Pivaloylthiophene O-(2-fluoro-4-methoxybenzoyl) oxime]",,,0.77,0.32,0.5,,
"CC(C)(C)/C(=N/OC(=O)c1cncs1)c1cccs1 [compound 4, (Z)-2-Pivaloylthiophene O-(thiazol-5-ylcarbonyl) oxime]",,,7.68,4.92,2,,2
"Cn1cncc1C(=O)O/N=C(\c1cccs1)C(C)(C)C [compound 5, (Z)-2-Pivaloylthiophene O-(1-methyl-1H-imidazol-5-oyl) oxime]",,,7.78,5.91,4,,4
"COc1ccc(C(=O)O/N=C(\c2cccnc2)C(C)(C)C)cc1 [compound 22, (Z)-3-Pivaloylpyridine O-(4-methoxybenzoyl) oxime]",≥ 32,,,,,,
